Data as given in patent publication US20210106649A1, “SYNERGISTIC COMBINATION OF CHEMOTHERAPY AND PEPTIDE FOR TREATING CANCER” (TOBEBIO Novel Drug Laboratory Co., Ltd., priority 2019, published 2021).
Ends that are not written are not given here.

System: AsPC-1 pancreatic cancer cells
Test: Survival analysis of AsPC-1 pancreatic cancer orthotopic mice model
Assay type: in vivo, athymic nude mice
Settings: alloferon-1 2.5 mg/kg daily s.c.; paclitaxel 8 mg/kg weekly i.p.; orthotopic AsPC-1 nude mice
Method: AsPC-1, human pancreas adenocarcinoma cell line, was purchased from American Type Culture Collection (ATCC) and maintained in a complete Eagle's minimal essential medium (MEM) medium supplemented with 10% fetal bovine serum (FBS) (Hyclone), non-essential amino acid, sodium pyruvate, penicillin-streptomycin and vitamin solution (Life Technologies). AsPC-1 cells were incubated at 37° C. in a mixture atmosphere of 5% CO2 and 95% […]. Cell lines were authenticated via short tandem repeat (STR) profiling (Cosmogenetech).
The number of survival days for all animals was recorded and statistical analysis was performed using the GraphPad Prism 8. Kaplan-Meier survival plots were analyzed with the Log-rank (Mantel-Cox) test to compare survival rates between groups. A probability (P) value of <0.05 or lower was considered statistically significant.

## CC(=O)O[C@H]1C(=O)[C@@]2(C)[C@H]([C@H](OC(=O)c3ccccc3)[C@]3(O)C[C@H](OC(=O)[C@H](O)[C@@H](NC(=O)c4ccccc4)c4ccccc4)C(C)=C1C3(C)C)[C@]1(OC(C)=O)CO[C@@H]1C[C@@H]2O [Paclitaxel, paclitaxel]
  Median survival: 107 days

## HGVSGHGQHGVHG [Alloferon-1]
  Median survival: 91 days
